# Results from patent US20090053807A1 (Novo Nordisk A/S, priority 1998, published 2009).
# Entries after “also recorded” stand apart in the source; their conditions may differ. Positions of bridges follow the written chain, without caps; N, C: chain ends. Non-standard residues stand in square brackets, D forms with d. Residues, ends and D or L forms follow the SMILES beside them. Chains are numbered I, II in the order given. No end group written: not given here. *: point of attachment. aminooxyacetyl = NOCC(=O)*; Glyoxylyl = O=CC(=O)*
# System: free fat cells
# Assay: Adipocyte / free fat cell (FFC) assay, 3H glucose incorporation into lipid
# Conditions: not given
row,Compound,activity in the FFC assay / at IR
1,"S453: Site 1-Site 2 heterodimer, C-N linkage (GSLDESFYDWFERQLGKKK[Glyoxylyl][Glyoxylyl]KEWLDQEWAWVQCEVYGRGCPSEE; disulfide 34-41 (inferred); not fully specified (residue 20, bridges); printed as GSLDESFYDWFERQLGKKK-Ald-17-Ald-KEWLDQ EWAWVQCEVYGRGCPSEE; also: Site 1-Site 2 heterodimer, C-N linkage via linker 17) [Peptide S453]",antagonist activity; also recorded: antagonist properties
2,(ESFYDWFERQLGK)2-23 [Peptide S415],highly potent

# Same assay, conditions: FFC assay potency; number of + grades agonist activity
row,Compound,FEC
1,"CC(C)C[C@H](NC(=O)[C@H](CCC(N)=O)NC(=O)[C@H](CCCNC(=N)N)NC(=O)[C@H](CCC(=O)O)NC(=O)[C@H](Cc1ccccc1)NC(=O)[C@H](Cc1c[nH]c2ccccc12)NC(=O)[C@H](CC(=O)O)NC(=O)[C@H](Cc1ccc(O)cc1)NC(=O)[C@H](Cc1ccccc1)NC(=O)[C@H](CO)NC(=O)[C@H](CCC(=O)O)NC(=O)[C@H](CC(=O)O)NC(=O)[C@H](CC(C)C)NC(=O)[C@H](CO)NC(=O)CNC(=O)CNC(=O)[C@H](CO)NC(=O)[C@@H]1CSSC[C@H](NC(=O)[C@H](CC(C)C)NC(=O)[C@@H](N)Cc2c[nH]cn2)C(=O)N[C@@H](C(C)C)C(=O)N[C@@H](CC(C)C)C(=O)N[C@@H](CCC(=O)O)C(=O)N[C@@H](CCC(=O)O)C(=O)N[C@@H](CC(C)C)C(=O)N[C@@H](Cc2ccccc2)C(=O)N[C@@H](Cc2c[nH]c3ccccc23)C(=O)NCC(=O)N[C@@H](C)C(=O)N[C@@H](CO)C(=O)N[C@@H](CC(C)C)C(=O)N[C@@H](Cc2ccccc2)C(=O)NCC(=O)N[C@@H](Cc2ccc(O)cc2)C(=O)N1)C(=O)O [Peptide S521] (HELM PEPTIDE1{H.L.C.V.L.E.E.L.F.W.G.A.S.L.F.G.Y.C.S.G.G.S.L.D.E.S.F.Y.D.W.F.E.R.Q.L}$PEPTIDE1,PEPTIDE1,3:R3-18:R3$$$V2.0; N-terminus and C-terminus assumed; bridges inferred)",+

# Same assay, conditions: FFC assay potency; number of + grades agonist potency
row,Compound,FEC
1,"CC(C)C[C@@H]1NC(=O)[C@H](CO)NC(=O)[C@H](C)NC(=O)CNC(=O)[C@H](Cc2c[nH]c3ccccc23)NC(=O)[C@H](Cc2ccccc2)NC(=O)[C@H](CC(C)C)NC(=O)[C@H](CCC(=O)O)NC(=O)[C@H](CCC(=O)O)NC(=O)[C@H](CC(C)C)NC(=O)[C@H](C(C)C)NC(=O)[C@@H](NC(=O)[C@H](CC(C)C)NC(=O)[C@H](Cc2c[nH]cn2)NC(=O)[C@@H](N)CCCCN)CSSC[C@@H](C(=O)N[C@@H](CO)C(=O)NCC(=O)N[C@@H](CCCCN)C(=O)N[C@@H](CCCCN)C(N)=O)NC(=O)[C@H](Cc2ccc(O)cc2)NC(=O)CNC(=O)[C@H](Cc2ccccc2)NC1=O [Peptide S331] (HELM PEPTIDE1{K.H.L.C.V.L.E.E.L.F.W.G.A.S.L.F.G.Y.C.S.G.K.K.[am]}$PEPTIDE1,PEPTIDE1,4:R3-19:R3$$$V2.0)",0
2,CC(C)C[C@H](NC(=O)[C@H](CCC(=O)O)NC(=O)[C@H](C)NC(=O)[C@@H](NC(=O)[C@H](Cc1ccccc1)NC(=O)[C@H](Cc1c[nH]c2ccccc12)NC(=O)[C@H](CC(=O)O)NC(=O)[C@H](Cc1ccc(O)cc1)NC(=O)[C@H](Cc1ccccc1)NC(=O)[C@H](CC(N)=O)NC(=O)[C@H](C)NC(=O)[C@H](CC(N)=O)NC(=O)[C@H](CCCNC(=N)N)NC(=O)[C@H](CCC(N)=O)NC(=O)[C@H](CC(C)C)NC(=O)[C@H](Cc1c[nH]c2ccccc12)NC(=O)[C@H](CC(=O)O)NC(=O)[C@@H](NC(=O)[C@H](CCCNC(=N)N)NC(=O)CNC(=O)[C@@H](N)CNC(=O)CON)C(C)C)C(C)C)C(=O)NCC(N)=O [Peptide S245],+
3,CC(C)[C@H](NC(=O)[C@H](Cc1ccccc1)NC(=O)[C@H](Cc1c[nH]c2ccccc12)NC(=O)[C@H](CC(=O)O)NC(=O)[C@H](Cc1ccc(O)cc1)NC(=O)[C@H](Cc1ccccc1)NC(=O)[C@H](CC(N)=O)NC(=O)[C@H](CCC(=O)O)NC(=O)[C@H](Cc1c[nH]cn1)NC(=O)[C@@H](N)Cc1ccccc1)C(=O)N[C@@H](CCCNC(=N)N)C(=O)N[C@@H](CCC(N)=O)C(=O)N[C@H](C(=O)N[C@@H](CO)C(=O)N[C@@H](CCCCN)C(=O)N[C@@H](CCCCN)C(=O)N[C@@H](CNC(=O)CON)C(N)=O)C(C)C [Peptide S131],+
4,CC[C@@H](C)[C@@H](NC(=O)[C@H](CCC(=O)O)NC(=O)[C@H](CC(=O)O)NC(=O)[C@H](Cc1ccccc1)NC(=O)[C@H](Cc1c[nH]c2ccccc12)NC(=O)[C@H](CC(=O)O)NC(=O)[C@H](Cc1ccc(O)cc1)NC(=O)[C@H](Cc1ccccc1)NC(=O)[C@@H]1C[C@@H](O)CN1C(=O)[C@H](CC(=O)O)NC(=O)[C@H](CCCNC(=N)N)NC(=O)[C@H](Cc1c[nH]c2ccccc12)NC(=O)[C@@H](N)CCC(=O)O)C(=O)N1C[C@H](O)C[C@H]1C(=O)N[C@H](CCC(=O)O)C(N)=O [Peptide S322] (HELM PEPTIDE1{E.W.R.D.[Hyp].F.Y.D.W.F.D.E.[dI].[Hyp].[dE].[am]}$$$$V2.0),0
5,CC[C@@H](C)[C@@H](NC(=O)[C@H](CCC(=O)O)NC(=O)[C@H](CC(=O)O)NC(=O)[C@H](Cc1ccccc1)NC(=O)[C@H](Cc1c[nH]c2ccccc12)NC(=O)[C@H](CC(=O)O)NC(=O)[C@H](Cc1ccc(O)cc1)NC(=O)[C@H](Cc1ccccc1)NC(=O)[C@H](CCC(=O)O)NC(=O)C(C)(C)NC(=O)[C@H](CC(=O)O)NC(=O)C1(NC(=O)[C@@H](N)CC(=O)O)Cc2ccccc2C1)C(=O)N1CCC[C@H]1C(=O)N[C@H](CCC(N)=O)C(N)=O [Peptide S319] (HELM PEPTIDE1{D.[O=C(C1(N[*:1])Cc2ccccc2C1)[*:2]].D.[Aib].E.F.Y.D.W.F.D.E.[dI].P.[dQ].[am]}$$$$V2.0),0
6,"CC[C@H](C)[C@@H]1NC(=O)[C@H](CCC(=O)O)NC(=O)[C@@H](NC(=O)[C@H](Cc2c[nH]c3ccccc23)NC(=O)[C@@H](NC(=O)[C@H](Cc2c[nH]c3ccccc23)NC(=O)[C@H](C)NC(=O)[C@H](CCCNC(=N)N)NC(=O)[C@H](CCC(=O)O)NC(=O)[C@H](CCC(N)=O)NC(=O)[C@H](CCC(=O)O)NC(=O)[C@H](CC(C)C)NC(=O)[C@@H](N)Cc2c[nH]c3ccccc23)[C@@H](C)CC)CSSC[C@@H](C(=O)N[C@@H](CCCNC(=N)N)C(=O)N[C@@H](C)C(=O)O)NC(=O)CNC(=O)[C@H](CO)NC(=O)CNC(=O)[C@H](CCC(N)=O)NC1=O [Peptide S263] (HELM PEPTIDE1{W.L.E.Q.E.R.A.W.I.W.C.E.I.Q.G.S.G.C.R.A}$PEPTIDE1,PEPTIDE1,11:R3-18:R3$$$V2.0; N-terminus and C-terminus assumed; bridges inferred)",0
7,"S419 (chain 1 K(aminooxyacetyl)EWLDQEWAWVQCEVYGRGCPSEE; chain 2 K(aminooxyacetyl)EWLDQEWAWVQCEVYGRGCPSEE; disulfide I:13-I:20, II:13-II:20 (inferred); not fully specified (bridges); also: dimer, the two chains joined N-terminus to N-terminus through linker 14 at the side chain of residue 1) [Peptide S419]",0
8,S326 (GIISQSCPESFYDWFAGQVSDPWWCW) [Peptide S326],−
9,"CC(C)C[C@@H]1NC(=O)[C@H](CO)NC(=O)[C@H](C)NC(=O)CNC(=O)CNC(=O)[C@H](Cc2ccccc2)NC(=O)[C@H](CC(C)C)NC(=O)[C@H](CCC(=O)O)NC(=O)[C@H](CCC(N)=O)NC(=O)[C@H](CC(C)C)NC(=O)[C@H](Cc2ccccc2)NC(=O)[C@@H](NC(=O)[C@H](CC(C)C)NC(=O)[C@@H]2CCCN2)CSSC[C@@H](C(=O)N[C@@H](CO)C(=O)NCC(=O)O)NC(=O)[C@H](Cc2ccc(O)cc2)NC(=O)CNC(=O)CNC1=O [Peptide S262] (HELM PEPTIDE1{P.L.C.F.L.Q.E.L.F.G.G.A.S.L.G.G.Y.C.S.G}$PEPTIDE1,PEPTIDE1,3:R3-18:R3$$$V2.0; N-terminus and C-terminus assumed; bridges inferred)",0
10,CC[C@@H](C)[C@@H](NC(=O)[C@H](CCC(=O)O)NC(=O)[C@H](CC(=O)O)NC(=O)[C@H](Cc1ccccc1)NC(=O)[C@H](Cc1c[nH]c2ccccc12)NC(=O)[C@H](CC(=O)O)NC(=O)[C@H](Cc1ccc(O)cc1)NC(=O)[C@H](Cc1ccccc1)NC(=O)[C@@H]1C[C@@H](O)CN1C(=O)[C@H](CC(=O)O)NC(=O)[C@H](CCCNC(=N)N)NC(=O)[C@@H](CCC(=O)O)NC(=O)[C@@H](N)Cc1ccc(O)cc1)C(=O)NCC(=O)NCC(N)=O [Peptide S321],0

# Target: T1, human insulin receptor (HIR) (Homo sapiens, UniProt P06213)
# T1 construct: made in house
# Assay: Insulin receptor binding, competition with 125I-labeled insulin (radio-receptor assay)
# Conditions: HIR binding affinity of synthetic peptides
# T1 sequence (P06213 28-758 limits assumed): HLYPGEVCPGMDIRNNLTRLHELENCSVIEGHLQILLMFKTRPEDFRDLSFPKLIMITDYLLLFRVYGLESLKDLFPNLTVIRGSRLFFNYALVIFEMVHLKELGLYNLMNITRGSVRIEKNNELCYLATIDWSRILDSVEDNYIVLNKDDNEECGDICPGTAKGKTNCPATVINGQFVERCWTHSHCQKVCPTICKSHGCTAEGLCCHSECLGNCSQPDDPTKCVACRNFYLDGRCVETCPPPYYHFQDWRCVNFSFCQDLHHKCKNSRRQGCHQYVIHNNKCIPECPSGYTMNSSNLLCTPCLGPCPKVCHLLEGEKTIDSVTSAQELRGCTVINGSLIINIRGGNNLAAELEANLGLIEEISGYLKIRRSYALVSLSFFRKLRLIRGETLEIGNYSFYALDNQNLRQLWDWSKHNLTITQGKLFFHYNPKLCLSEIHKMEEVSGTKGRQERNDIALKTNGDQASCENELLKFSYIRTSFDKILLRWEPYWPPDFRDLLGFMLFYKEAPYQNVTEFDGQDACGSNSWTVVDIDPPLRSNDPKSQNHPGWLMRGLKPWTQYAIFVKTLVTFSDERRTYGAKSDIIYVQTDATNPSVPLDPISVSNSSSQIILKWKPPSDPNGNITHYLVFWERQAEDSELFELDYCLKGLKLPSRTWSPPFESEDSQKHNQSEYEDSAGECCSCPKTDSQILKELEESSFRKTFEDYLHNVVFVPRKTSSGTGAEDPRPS
# T1 sequence (P06213 763-1382 limits assumed): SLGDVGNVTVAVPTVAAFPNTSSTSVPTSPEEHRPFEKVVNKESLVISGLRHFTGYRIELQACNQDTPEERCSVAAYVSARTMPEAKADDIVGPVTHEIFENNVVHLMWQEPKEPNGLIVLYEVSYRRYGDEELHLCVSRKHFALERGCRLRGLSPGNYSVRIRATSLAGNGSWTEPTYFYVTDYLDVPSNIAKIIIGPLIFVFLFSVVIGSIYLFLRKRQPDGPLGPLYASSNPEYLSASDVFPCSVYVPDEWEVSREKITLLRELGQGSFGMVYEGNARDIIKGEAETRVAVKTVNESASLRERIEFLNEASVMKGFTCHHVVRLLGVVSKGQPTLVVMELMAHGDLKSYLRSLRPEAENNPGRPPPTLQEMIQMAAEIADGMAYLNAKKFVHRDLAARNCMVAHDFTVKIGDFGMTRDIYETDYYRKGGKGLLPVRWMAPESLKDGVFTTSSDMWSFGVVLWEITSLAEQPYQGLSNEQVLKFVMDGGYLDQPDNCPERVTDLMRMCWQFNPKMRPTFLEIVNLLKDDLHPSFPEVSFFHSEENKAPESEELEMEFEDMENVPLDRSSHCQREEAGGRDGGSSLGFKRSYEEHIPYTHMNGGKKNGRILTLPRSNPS
row,Compound,Kd
1,HDPFYSMMKSLLK [Peptide S120],2000 nM
2,SLNFYDALQLLAKK [Peptide S119],1800 nM
3,"CC(C)C[C@H](NC(=O)[C@@H](N)CCC(N)=O)C(=O)N[C@@H](CCC(=O)O)C(=O)N[C@@H](CCC(=O)O)C(=O)N[C@@H](CCC(=O)O)C(=O)N[C@@H](Cc1c[nH]c2ccccc12)C(=O)N[C@@H](C)C(=O)NCC(=O)N[C@H](C(=O)N[C@@H](CCC(N)=O)C(=O)N[C@H]1CSSC[C@@H](C(=O)N2CCC[C@H]2C(=O)N[C@@H](CO)C(=O)O)NC(=O)[C@H](CCC(=O)O)NC(=O)[C@H](CCCNC(=N)N)NC(=O)CNC(=O)[C@H](Cc2ccc(O)cc2)NC(=O)[C@H](C(C)C)NC(=O)[C@H](CCC(=O)O)NC1=O)C(C)C [Peptide S226] (HELM PEPTIDE1{Q.L.E.E.E.W.A.G.V.Q.C.E.V.Y.G.R.E.C.P.S}$PEPTIDE1,PEPTIDE1,11:R3-18:R3$$$V2.0; N-terminus and C-terminus assumed; bridges inferred)",1600 nM
4,GSLDESFYDWFERQL [Peptide S395],81 nM

# System: FDC-P2 cells expressing the IL-3 and human IGF-1R receptors
# Assay: not given
# Conditions: FDC-P2 cells, agonist format; Table 15
row,Compound,ED50 Growth
1,WLDQERAWLWCEISGRGCLSGGSGGSGGSGGSGSLDESFYDWFERQLGKK (disulfide 11-18 (inferred)) [D815-RP9 12 aa],"10,000 nM"
2,WLDQERAWLWCEISGRGCLSGGSGGSGSLDESFYDWFERQLGKK (disulfide 11-18 (inferred)) [D815-RP9 6 aa],50 nM

# Same assay, conditions: FDC-P2 cells; Table 15
row,Compound,Max Action
1,WLDQERAWLWCEISGRGCLSGGSGGSGGSGGSGSLDESFYDWFERQLGKK (disulfide 11-18 (inferred)) [D815-RP9 12 aa],100%
2,WLDQERAWLWCEISGRGCLSGGSGGSGSLDESFYDWFERQLGKK (disulfide 11-18 (inferred)) [D815-RP9 6 aa],>50%
